According to publication PMC11864979, “First-in-class ultralong-target-residence-time p38α inhibitors as a mitosis-targeted therapy for colorectal cancer” (Nature Cancer, 2025):
Read-outs that look alike come from different tables or passages of the source.

How the values were obtained:
Assay in all cases: selectivity profiling in a panel of 340 wild-type kinases (Reaction Biology Europe)
Type in all cases: binding
340 wild-type kinases [1] = target: T1, 340 wild-type kinases (Homo sapiens, UniProt Q00536)
T1 construct: purchased Reaction Biology Europe
T1 sequence (Q00536 whole entry): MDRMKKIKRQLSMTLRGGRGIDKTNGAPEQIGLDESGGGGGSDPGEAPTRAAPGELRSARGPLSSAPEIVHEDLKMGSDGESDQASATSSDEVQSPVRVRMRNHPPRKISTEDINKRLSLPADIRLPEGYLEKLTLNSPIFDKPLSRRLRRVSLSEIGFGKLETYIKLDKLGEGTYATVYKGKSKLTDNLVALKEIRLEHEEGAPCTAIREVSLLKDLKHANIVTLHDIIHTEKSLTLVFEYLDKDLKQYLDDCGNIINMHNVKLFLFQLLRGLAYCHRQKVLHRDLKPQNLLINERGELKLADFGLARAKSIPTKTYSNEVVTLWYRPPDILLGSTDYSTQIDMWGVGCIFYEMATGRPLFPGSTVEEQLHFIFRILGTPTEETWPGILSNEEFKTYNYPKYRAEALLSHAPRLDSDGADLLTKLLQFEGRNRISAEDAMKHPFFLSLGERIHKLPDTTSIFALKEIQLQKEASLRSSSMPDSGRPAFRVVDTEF

340 wild-type kinases [2] = target: T2, 340 wild-type kinases (Homo sapiens, UniProt Q9NYV4)
T2 construct: purchased Reaction Biology Europe

340 wild-type kinases [3] = target: T3, 340 wild-type kinases (Homo sapiens, UniProt P34947)
T3 construct: purchased Reaction Biology Europe
T3 sequence (P34947 whole entry): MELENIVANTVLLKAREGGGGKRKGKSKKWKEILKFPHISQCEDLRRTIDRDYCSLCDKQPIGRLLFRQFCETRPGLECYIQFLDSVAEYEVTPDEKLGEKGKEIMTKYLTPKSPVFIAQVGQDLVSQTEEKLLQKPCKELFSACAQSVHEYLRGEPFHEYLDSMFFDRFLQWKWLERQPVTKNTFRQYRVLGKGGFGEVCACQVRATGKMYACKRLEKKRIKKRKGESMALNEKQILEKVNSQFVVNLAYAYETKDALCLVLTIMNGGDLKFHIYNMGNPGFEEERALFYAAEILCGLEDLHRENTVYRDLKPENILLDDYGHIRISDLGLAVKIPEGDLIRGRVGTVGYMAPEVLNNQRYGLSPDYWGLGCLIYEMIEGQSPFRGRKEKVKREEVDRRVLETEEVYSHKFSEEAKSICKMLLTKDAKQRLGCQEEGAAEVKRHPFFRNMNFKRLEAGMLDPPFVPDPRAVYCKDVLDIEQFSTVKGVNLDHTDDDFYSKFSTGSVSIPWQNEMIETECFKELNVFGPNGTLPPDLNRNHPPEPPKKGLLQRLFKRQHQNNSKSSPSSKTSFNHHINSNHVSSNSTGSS

340 wild-type kinases [4] = target: T4, 340 wild-type kinases (Homo sapiens, UniProt P42680)
T4 construct: purchased Reaction Biology Europe
T4 sequence (P42680 1-631): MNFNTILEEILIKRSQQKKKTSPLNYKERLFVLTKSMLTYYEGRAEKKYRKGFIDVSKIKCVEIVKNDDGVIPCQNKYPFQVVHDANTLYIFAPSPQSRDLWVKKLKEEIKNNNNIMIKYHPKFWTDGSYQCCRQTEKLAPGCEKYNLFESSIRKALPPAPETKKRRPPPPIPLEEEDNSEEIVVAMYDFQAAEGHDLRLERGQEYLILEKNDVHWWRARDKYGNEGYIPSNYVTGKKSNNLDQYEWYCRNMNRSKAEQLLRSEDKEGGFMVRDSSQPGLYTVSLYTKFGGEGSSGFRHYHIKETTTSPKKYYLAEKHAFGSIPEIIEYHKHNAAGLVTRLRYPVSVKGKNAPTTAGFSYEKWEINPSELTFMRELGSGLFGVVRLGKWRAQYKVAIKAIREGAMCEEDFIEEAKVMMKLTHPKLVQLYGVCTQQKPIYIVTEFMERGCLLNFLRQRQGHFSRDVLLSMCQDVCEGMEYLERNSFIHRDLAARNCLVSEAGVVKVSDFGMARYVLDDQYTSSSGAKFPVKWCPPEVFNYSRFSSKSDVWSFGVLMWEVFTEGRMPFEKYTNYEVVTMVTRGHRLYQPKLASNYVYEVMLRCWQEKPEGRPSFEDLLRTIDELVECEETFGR

340 wild-type kinases [5] = target: T5, 340 wild-type kinases (Homo sapiens, UniProt Q9Y2H1)
T5 construct: purchased Reaction Biology Europe
T5 sequence (Q9Y2H1 whole entry): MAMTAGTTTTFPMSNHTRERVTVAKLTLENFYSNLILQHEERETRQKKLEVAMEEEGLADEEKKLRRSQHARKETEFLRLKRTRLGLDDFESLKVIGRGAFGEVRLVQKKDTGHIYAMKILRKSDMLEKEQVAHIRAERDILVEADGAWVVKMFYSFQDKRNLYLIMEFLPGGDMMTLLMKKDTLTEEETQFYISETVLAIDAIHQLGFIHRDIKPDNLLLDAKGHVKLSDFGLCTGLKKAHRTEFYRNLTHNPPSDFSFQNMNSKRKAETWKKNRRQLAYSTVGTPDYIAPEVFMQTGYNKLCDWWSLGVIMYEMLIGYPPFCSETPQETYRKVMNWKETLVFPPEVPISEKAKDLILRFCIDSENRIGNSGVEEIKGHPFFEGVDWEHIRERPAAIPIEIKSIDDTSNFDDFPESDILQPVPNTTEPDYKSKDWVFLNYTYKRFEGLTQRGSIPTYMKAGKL

340 wild-type kinases [6] = target: T6, 340 wild-type kinases (Homo sapiens, UniProt O15264)
T6 construct: purchased Reaction Biology Europe
T6 sequence (O15264 1-365): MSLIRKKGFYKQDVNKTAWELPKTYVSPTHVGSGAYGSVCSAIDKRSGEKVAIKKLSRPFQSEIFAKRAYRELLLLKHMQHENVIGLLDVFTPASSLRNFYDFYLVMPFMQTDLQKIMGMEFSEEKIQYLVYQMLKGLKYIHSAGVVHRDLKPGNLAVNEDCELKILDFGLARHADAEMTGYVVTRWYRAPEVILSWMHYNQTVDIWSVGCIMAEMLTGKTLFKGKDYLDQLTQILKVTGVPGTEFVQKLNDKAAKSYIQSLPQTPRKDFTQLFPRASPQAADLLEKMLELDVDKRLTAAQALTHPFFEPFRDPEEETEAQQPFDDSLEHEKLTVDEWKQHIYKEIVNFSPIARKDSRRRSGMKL

340 wild-type kinases [7] = target: T7, 340 wild-type kinases (Homo sapiens, UniProt P04626)
T7 construct: purchased Reaction Biology Europe

340 wild-type kinases [8] = target: T8, 340 wild-type kinases (Homo sapiens, UniProt Q07912)
T8 construct: purchased Reaction Biology Europe
T8 sequence (Q07912 whole entry): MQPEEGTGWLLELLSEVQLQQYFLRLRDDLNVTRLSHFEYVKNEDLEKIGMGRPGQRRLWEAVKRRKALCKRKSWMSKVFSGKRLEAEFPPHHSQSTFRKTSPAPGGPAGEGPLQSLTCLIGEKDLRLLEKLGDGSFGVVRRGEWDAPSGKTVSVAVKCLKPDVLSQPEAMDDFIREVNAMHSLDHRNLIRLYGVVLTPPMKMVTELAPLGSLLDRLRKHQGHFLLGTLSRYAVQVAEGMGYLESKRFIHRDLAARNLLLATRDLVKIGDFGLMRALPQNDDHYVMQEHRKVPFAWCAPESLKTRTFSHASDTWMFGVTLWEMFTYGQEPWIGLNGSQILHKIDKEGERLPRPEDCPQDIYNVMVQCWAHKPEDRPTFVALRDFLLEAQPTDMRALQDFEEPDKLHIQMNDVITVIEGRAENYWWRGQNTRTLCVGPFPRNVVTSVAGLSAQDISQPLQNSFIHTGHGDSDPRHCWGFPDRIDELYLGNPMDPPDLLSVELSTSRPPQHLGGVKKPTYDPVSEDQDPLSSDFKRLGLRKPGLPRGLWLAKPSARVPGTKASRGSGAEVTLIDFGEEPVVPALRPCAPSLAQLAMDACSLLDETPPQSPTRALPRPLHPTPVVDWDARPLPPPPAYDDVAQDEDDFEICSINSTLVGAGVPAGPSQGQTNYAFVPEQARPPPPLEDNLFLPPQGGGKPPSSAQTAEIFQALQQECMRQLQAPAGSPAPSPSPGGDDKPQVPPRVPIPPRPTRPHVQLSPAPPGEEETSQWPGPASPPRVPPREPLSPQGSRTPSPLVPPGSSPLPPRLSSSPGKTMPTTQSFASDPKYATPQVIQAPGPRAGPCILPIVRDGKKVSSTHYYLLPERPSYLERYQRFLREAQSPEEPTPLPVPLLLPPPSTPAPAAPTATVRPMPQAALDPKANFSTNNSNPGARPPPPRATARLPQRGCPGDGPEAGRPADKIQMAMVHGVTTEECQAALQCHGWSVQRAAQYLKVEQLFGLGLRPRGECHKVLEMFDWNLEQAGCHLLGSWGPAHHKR

340 wild-type kinases [9] = target: T9, 340 wild-type kinases (Homo sapiens, UniProt P29597)
T9 construct: purchased Reaction Biology Europe
T9 sequence (P29597 whole entry): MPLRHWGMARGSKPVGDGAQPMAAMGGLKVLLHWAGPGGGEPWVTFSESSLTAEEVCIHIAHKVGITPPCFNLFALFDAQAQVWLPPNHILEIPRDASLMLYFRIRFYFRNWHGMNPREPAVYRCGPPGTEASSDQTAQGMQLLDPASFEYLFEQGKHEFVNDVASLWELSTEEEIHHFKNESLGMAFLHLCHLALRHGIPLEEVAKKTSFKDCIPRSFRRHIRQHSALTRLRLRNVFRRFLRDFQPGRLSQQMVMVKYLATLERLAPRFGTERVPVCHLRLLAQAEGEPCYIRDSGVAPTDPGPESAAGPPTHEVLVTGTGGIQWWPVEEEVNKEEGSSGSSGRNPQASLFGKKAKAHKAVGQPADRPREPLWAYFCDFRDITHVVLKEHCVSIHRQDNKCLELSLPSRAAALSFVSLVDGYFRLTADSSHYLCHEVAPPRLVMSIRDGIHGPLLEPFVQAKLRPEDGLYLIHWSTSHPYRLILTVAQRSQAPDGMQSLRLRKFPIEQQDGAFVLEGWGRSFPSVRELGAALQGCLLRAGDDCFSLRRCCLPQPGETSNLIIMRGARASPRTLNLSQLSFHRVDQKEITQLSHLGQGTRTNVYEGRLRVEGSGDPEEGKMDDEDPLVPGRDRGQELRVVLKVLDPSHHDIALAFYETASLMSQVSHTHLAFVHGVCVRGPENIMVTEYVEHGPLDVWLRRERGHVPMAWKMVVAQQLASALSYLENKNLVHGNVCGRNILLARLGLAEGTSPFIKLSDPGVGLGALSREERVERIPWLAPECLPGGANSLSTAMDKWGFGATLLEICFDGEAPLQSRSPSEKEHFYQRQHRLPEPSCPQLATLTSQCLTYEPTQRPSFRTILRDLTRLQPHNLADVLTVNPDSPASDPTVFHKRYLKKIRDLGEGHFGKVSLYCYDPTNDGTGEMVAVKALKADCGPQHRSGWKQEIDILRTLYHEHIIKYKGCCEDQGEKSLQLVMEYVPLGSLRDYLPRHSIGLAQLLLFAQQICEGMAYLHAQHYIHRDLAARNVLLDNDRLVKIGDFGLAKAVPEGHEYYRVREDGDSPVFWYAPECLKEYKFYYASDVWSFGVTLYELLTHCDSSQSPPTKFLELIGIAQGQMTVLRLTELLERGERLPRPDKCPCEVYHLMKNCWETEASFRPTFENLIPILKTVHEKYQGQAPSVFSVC

340 wild-type kinases [10] = target: T10, 340 wild-type kinases (Homo sapiens, UniProt P24723)
T10 construct: purchased Reaction Biology Europe
T10 sequence (P24723 whole entry): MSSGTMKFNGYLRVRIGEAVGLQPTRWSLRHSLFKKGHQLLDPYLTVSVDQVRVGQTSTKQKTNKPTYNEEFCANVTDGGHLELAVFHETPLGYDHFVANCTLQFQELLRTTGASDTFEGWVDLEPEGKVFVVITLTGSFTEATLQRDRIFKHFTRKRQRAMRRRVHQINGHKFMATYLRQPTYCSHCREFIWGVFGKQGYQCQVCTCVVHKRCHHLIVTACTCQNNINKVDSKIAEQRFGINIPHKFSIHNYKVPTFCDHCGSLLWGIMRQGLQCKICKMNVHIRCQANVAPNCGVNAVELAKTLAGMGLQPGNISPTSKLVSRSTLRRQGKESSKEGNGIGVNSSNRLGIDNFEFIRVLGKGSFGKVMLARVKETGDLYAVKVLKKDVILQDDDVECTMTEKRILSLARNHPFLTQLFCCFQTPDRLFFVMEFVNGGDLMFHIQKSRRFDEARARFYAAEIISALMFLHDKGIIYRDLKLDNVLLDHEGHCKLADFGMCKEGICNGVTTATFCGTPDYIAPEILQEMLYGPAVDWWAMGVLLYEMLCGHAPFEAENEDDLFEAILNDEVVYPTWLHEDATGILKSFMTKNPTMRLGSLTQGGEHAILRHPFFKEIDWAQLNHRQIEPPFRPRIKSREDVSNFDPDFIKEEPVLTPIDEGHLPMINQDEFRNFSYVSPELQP

340 wild-type kinases [11] = target: T11, 340 wild-type kinases (Homo sapiens, UniProt Q92630)
T11 construct: purchased Reaction Biology Europe
T11 sequence (Q92630 1-601): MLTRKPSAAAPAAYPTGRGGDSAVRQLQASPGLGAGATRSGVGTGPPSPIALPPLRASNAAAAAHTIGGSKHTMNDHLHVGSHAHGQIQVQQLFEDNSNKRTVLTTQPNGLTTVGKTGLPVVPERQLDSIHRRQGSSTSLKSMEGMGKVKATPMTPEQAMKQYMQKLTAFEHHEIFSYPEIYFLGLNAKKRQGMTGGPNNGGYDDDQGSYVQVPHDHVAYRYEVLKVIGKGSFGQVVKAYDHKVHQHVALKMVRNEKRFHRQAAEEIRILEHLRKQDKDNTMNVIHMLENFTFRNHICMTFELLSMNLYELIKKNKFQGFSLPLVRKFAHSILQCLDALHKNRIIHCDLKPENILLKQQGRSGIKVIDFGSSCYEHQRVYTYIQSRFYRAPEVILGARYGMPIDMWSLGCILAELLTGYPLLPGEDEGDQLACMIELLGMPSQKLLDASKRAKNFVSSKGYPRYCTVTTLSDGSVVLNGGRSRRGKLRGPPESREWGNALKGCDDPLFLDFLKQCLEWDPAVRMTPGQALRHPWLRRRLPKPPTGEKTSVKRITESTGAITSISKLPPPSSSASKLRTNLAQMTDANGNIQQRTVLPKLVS

CNC(=O)c1ccc2c(c1)C(=O)c1ccc(Nc3ccc(F)c(NC(=O)C4CC4)c3)cc1CC2 [Compound 2015]
remaining activity at 0.2 µM (340 wild-type kinases [1]; 0.2 µM 2015, read-out: CDK16/CycY residual activity): 99.3%
remaining activity at 1 µM (340 wild-type kinases [1]; 1 µM 2015, read-out: CDK16/CycY residual activity): 96.8%
remaining activity at 0.2 µM (340 wild-type kinases [1]; CDK16/CycY, 0.2 µM, read-out: residual activity): 99.3%
remaining activity at 1 µM (340 wild-type kinases [1]; CDK16/CycY, 1 µM, read-out: residual activity): 96.8%
remaining activity at 0.2 µM (340 wild-type kinases [2]; 0.2 µM 2015, read-out: CDK12/CycK residual activity): 112%
remaining activity at 1 µM (340 wild-type kinases [2]; 1 µM 2015, read-out: CDK12/CycK residual activity): 103%
remaining activity at 0.2 µM (340 wild-type kinases [2]; CDK12/CycK, 0.2 µM, read-out: residual activity): 112%
remaining activity at 1 µM (340 wild-type kinases [2]; CDK12/CycK, 1 µM, read-out: residual activity): 103%
remaining activity at 0.2 µM (340 wild-type kinases [3]; 0.2 µM 2015, read-out: GRK5 residual activity): 106%
remaining activity at 1 µM (340 wild-type kinases [3]; 1 µM 2015, read-out: GRK5 residual activity): 114%
remaining activity at 0.2 µM (340 wild-type kinases [3]; GRK5, 0.2 µM, read-out: residual activity): 106%
remaining activity at 1 µM (340 wild-type kinases [3]; GRK5, 1 µM, read-out: residual activity): 114%
remaining activity at 0.2 µM (340 wild-type kinases [4]; 0.2 µM 2015, read-out: TEC residual activity): 120%
remaining activity at 1 µM (340 wild-type kinases [4]; 1 µM 2015, read-out: TEC residual activity): 108%
remaining activity at 0.2 µM (340 wild-type kinases [4]; TEC, 0.2 µM, read-out: residual activity): 120%
remaining activity at 1 µM (340 wild-type kinases [4]; TEC, 1 µM, read-out: residual activity): 108%
remaining activity at 0.2 µM (340 wild-type kinases [5]; 0.2 µM 2015, read-out: NDR2 residual activity): 97.8%
remaining activity at 1 µM (340 wild-type kinases [5]; 1 µM 2015, read-out: NDR2 residual activity): 96.6%
remaining activity at 0.2 µM (340 wild-type kinases [5]; NDR2, 0.2 µM, read-out: residual activity): 97.8%
remaining activity at 1 µM (340 wild-type kinases [5]; NDR2, 1 µM, read-out: residual activity): 96.7%
remaining activity at 0.2 µM (340 wild-type kinases [6]; 0.2 µM 2015, read-out: p38delta residual activity): 101%
remaining activity at 1 µM (340 wild-type kinases [6]; 1 µM 2015, read-out: p38delta residual activity): 90.6%
remaining activity at 0.2 µM (340 wild-type kinases [6]; p38delta, 0.2 µM, read-out: residual activity): 101%
remaining activity at 1 µM (340 wild-type kinases [6]; p38delta, 1 µM, read-out: residual activity): 90.6%
remaining activity at 0.2 µM (340 wild-type kinases [7]; 0.2 µM 2015, read-out: ERBB2 residual activity): 105%
remaining activity at 1 µM (340 wild-type kinases [7]; 1 µM 2015, read-out: ERBB2 residual activity): 102%
remaining activity at 0.2 µM (340 wild-type kinases [7]; ERBB2, 0.2 µM, read-out: residual activity): 105%
remaining activity at 1 µM (340 wild-type kinases [7]; ERBB2, 1 µM, read-out: residual activity): 102%
remaining activity at 0.2 µM (340 wild-type kinases [8]; 0.2 µM 2015, read-out: ACK1 residual activity): 110%
remaining activity at 1 µM (340 wild-type kinases [8]; 1 µM 2015, read-out: ACK1 residual activity): 108%
remaining activity at 0.2 µM (340 wild-type kinases [8]; ACK1, 0.2 µM, read-out: residual activity): 110%
remaining activity at 1 µM (340 wild-type kinases [8]; ACK1, 1 µM, read-out: residual activity): 108%
remaining activity at 0.2 µM (340 wild-type kinases [9]; 0.2 µM 2015, read-out: TYK2 residual activity): 103%
remaining activity at 1 µM (340 wild-type kinases [9]; 1 µM 2015, read-out: TYK2 residual activity): 96.3%
remaining activity at 0.2 µM (340 wild-type kinases [9]; TYK2, 0.2 µM, read-out: residual activity): 103%
remaining activity at 1 µM (340 wild-type kinases [9]; TYK2, 1 µM, read-out: residual activity): 96.3%
remaining activity at 0.2 µM (340 wild-type kinases [10]; 0.2 µM 2015, read-out: PKCeta residual activity): 80.3%
remaining activity at 1 µM (340 wild-type kinases [10]; 1 µM 2015, read-out: PKCeta residual activity): 90.1%
remaining activity at 0.2 µM (340 wild-type kinases [10]; PKCeta, 0.2 µM, read-out: residual activity): 80.3%
remaining activity at 1 µM (340 wild-type kinases [10]; PKCeta, 1 µM, read-out: residual activity): 90.1%
remaining activity at 0.2 µM (340 wild-type kinases [11]; 0.2 µM 2015, read-out: DYRK2 residual activity): 95.7%
remaining activity at 1 µM (340 wild-type kinases [11]; 1 µM 2015, read-out: DYRK2 residual activity): 94.2%
remaining activity at 0.2 µM (340 wild-type kinases [11]; DYRK2, 0.2 µM, read-out: residual activity): 95.7%
remaining activity at 1 µM (340 wild-type kinases [11]; DYRK2, 1 µM, read-out: residual activity): 94.2%
